Experimental data from PubChem BioAssay AID248 (DTP/NCI, 2004).
Inconclusive results and toxic doses are left out. Rule as the data show it: active = T/C of 150% or more; inactive = T/C below 125%.

Test system: L1210 leukemia ip in BDF1 mice, survival T/C
Assay: NCI In Vivo Anticancer Drug Screen. Data for tumor model L1210 Leukemia (intraperitoneal) in B6D2F1 (BDF1) mice
Conditions: endpoint: mean survival time, higher = longer survival
Procedure, shortened: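 Each compound was tested against a transplantable tumor grown in mice. The endpoint was survival, with treated animals benchmarked against vehicle controls as a simple ratio.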

[1] = dose: 100.0 mg/kg/injection, schedule: Q01DX009 (ip), vehicle: saline
[2] = dose: 100.0 mg/kg/injection, schedule: Q04DX003 (ip), vehicle: saline
[3] = dose: 200.0 mg/kg/injection, schedule: Q01DX009 (ip), vehicle: saline
[4] = dose: 200.0 mg/kg/injection, schedule: Q04DX003 (ip), vehicle: saline
[5] = dose: 400.0 mg/kg/injection, schedule: Q01DX009 (ip), vehicle: saline
[6] = dose: 400.0 mg/kg/injection, schedule: Q04DX003 (ip), vehicle: saline
[7] = dose: 100.0 mg/kg/injection, schedule: Q04DX002 (ip), vehicle: saline with Tween-80
[8] = dose: 100.0 mg/kg/injection, schedule: Q01DX001 (ip), vehicle: saline
[9] = dose: 200.0 mg/kg/injection, schedule: Q01DX001 (ip), vehicle: saline
[10] = dose: 100.0 mg/kg/injection, schedule: Q04DX003 (ip), vehicle: Klucel (hydroxypropylcellulose) (HPC)
[11] = dose: 200.0 mg/kg/injection, schedule: Q04DX003 (ip), vehicle: Klucel (hydroxypropylcellulose) (HPC)

Measured: T/C

NC(CSC(c1ccccc1)(c1ccccc1)c1ccc(C(=O)O)cc1)C(=O)O.[Ga] (stereo unspecified)
inactive: dose: 100.0 mg/kg/injection, schedule: Q01DX001 (ip), vehicle: acetone 96 % of control | [1] 103 % of control | [2] 106 % of control | dose: 200.0 mg/kg/injection, schedule: Q01DX001 (ip), vehicle: acetone 98 % of control | [3] 90 % of control | [4] 97 % of control | dose: 400.0 mg/kg/injection, schedule: Q01DX001 (ip), vehicle: acetone 112 % of control | [5] 98 % of control | [6] 100 % of control

CCC1(CCC#N)CCc2[nH]c3ccccc3c2C1=O (stereo unspecified)
inactive: [7] 108 % of control | dose: 200.0 mg/kg/injection, schedule: Q04DX002 (ip), vehicle: saline with Tween-80 94 % of control | dose: 400.0 mg/kg/injection, schedule: Q04DX002 (ip), vehicle: saline with Tween-80 87 % of control

O=c1c(-c2ccccc2)c(S)sc(S)c1-c1ccccc1
inactive: dose: 100.0 mg/kg/injection, schedule: Q04DX002 (ip), vehicle: gum acacia 93 % of control | dose: 200.0 mg/kg/injection, schedule: Q04DX002 (ip), vehicle: gum acacia 104 % of control | dose: 400.0 mg/kg/injection, schedule: Q04DX002 (ip), vehicle: gum acacia 93 % of control

COC(=O)CNC(=O)C(Cc1ccc(OCc2ccccc2)cc1)NC(=O)OC(C)(C)C (stereo unspecified)
inactive: [1] 98 % of control | [2] 93 % of control | [3] 106 % of control | [4] 97 % of control | [5] 96 % of control | [6] 97 % of control

NS(=O)(=O)c1ccc(-c2ccc([As](=O)(O)O)cc2)cc1
inactive: dose: 5.0 mg/kg/injection, schedule: Q01DX001 (ip), vehicle: saline 96 % of control | dose: 10.0 mg/kg/injection, schedule: Q01DX001 (ip), vehicle: saline 87 % of control | dose: 20.0 mg/kg/injection, schedule: Q01DX001 (ip), vehicle: saline 98 % of control | dose: 40.0 mg/kg/injection, schedule: Q01DX001 (ip), vehicle: saline 96 % of control | dose: 80.0 mg/kg/injection, schedule: Q01DX001 (ip), vehicle: saline 98 % of control

Cc1ccc2[nH]c(=S)[nH]c2c1
inactive: dose: 100.0 mg/kg/injection, schedule: Q01DX001 (ip), vehicle: saline with Tween-80 101 % of control | dose: 200.0 mg/kg/injection, schedule: Q01DX001 (ip), vehicle: saline with Tween-80 106 % of control

CCOC(=O)C(=O)C1CCCCC1=O (stereo unspecified)
inactive: [8] 108 % of control | [9] 108 % of control

CCCCCCCCCCCCCCP(I)(N(C)C)(N(C)C)N(C)C
inactive: dose: 0.78 mg/kg/injection, schedule: Q04DX002 (ip), vehicle: saline 107 % of control | dose: 1.56 mg/kg/injection, schedule: Q04DX002 (ip), vehicle: saline 113 % of control | dose: 3.13 mg/kg/injection, schedule: Q04DX002 (ip), vehicle: saline 113 % of control

CN(Cc1cccc(Cl)c1)C(=O)NC(C)(C)C
inactive: dose: 100.0 mg/kg/injection, schedule: Q04DX002 (ip), vehicle: Klucel (hydroxypropylcellulose) (HPC) 100 % of control | dose: 200.0 mg/kg/injection, schedule: Q04DX002 (ip), vehicle: Klucel (hydroxypropylcellulose) (HPC) 96 % of control | dose: 400.0 mg/kg/injection, schedule: Q04DX002 (ip), vehicle: Klucel (hydroxypropylcellulose) (HPC) 100 % of control

CC(=O)Nc1ccc(/C=N\NC(=O)C2CC2)cc1
inactive: [10] 100 % of control | [11] 87 % of control | dose: 400.0 mg/kg/injection, schedule: Q04DX003 (ip), vehicle: Klucel (hydroxypropylcellulose) (HPC) 87 % of control

C=C(Cl)CSC(C)(C)C
inactive: [1] 118 % of control | dose: 100.0 mg/kg/injection, schedule: Q04DX002 (ip), vehicle: saline 100 % of control | [3] 100 % of control | dose: 200.0 mg/kg/injection, schedule: Q04DX002 (ip), vehicle: saline 97 % of control | [5] 93 % of control | dose: 400.0 mg/kg/injection, schedule: Q04DX002 (ip), vehicle: saline 93 % of control

COc1cc(OC)c(OC)cc1C=NC1CCCCCCC1
inactive: dose: 50.0 mg/kg/injection, schedule: Q01DX009 (ip), vehicle: saline with Tween-80 91 % of control | dose: 100.0 mg/kg/injection, schedule: Q01DX009 (ip), vehicle: saline with Tween-80 102 % of control | dose: 200.0 mg/kg/injection, schedule: Q01DX009 (ip), vehicle: saline with Tween-80 102 % of control

CC(C)(C)C(=O)Cn1nnnc1C(=O)C(C)(C)C
inactive: dose: 50.0 mg/kg/injection, schedule: Q04DX003 (ip), vehicle: Klucel (hydroxypropylcellulose) (HPC) 105 % of control | dose: 100.0 mg/kg/injection, schedule: Q01DX001 (ip), vehicle: Klucel (hydroxypropylcellulose) (HPC) 105 % of control | [10] 103 % of control | dose: 200.0 mg/kg/injection, schedule: Q01DX001 (ip), vehicle: Klucel (hydroxypropylcellulose) (HPC) 108 % of control | [11] 100 % of control

CC(=O)OC1=C(OC(C)=O)N(S(=O)(=O)c2ccc(C)cc2)CCc2ccccc21
inactive: dose: 100.0 mg/kg/injection, schedule: Q01DX001 (ip), vehicle: carboxymethylcellulose (CMC) 97 % of control | dose: 200.0 mg/kg/injection, schedule: Q01DX001 (ip), vehicle: carboxymethylcellulose (CMC) 94 % of control | dose: 400.0 mg/kg/injection, schedule: Q01DX001 (ip), vehicle: carboxymethylcellulose (CMC) 100 % of control

COc1ccc(Br)c([N+](=O)[O-])c1
inactive: [8] 103 % of control | [9] 97 % of control | dose: 400.0 mg/kg/injection, schedule: Q01DX001 (ip), vehicle: saline 103 % of control

CCc1nnnn1C12CC3CC(CC(C3)C1)C2
inactive: [2] 102 % of control

CCCCCCCCCCCCCCCC[N+]1(C)CCOCC1
inactive: dose: 50.0 mg/kg/injection, schedule: Q01DX009 (ip), vehicle: Klucel (hydroxypropylcellulose) (HPC) 114 % of control | dose: 100.0 mg/kg/injection, schedule: Q01DX009 (ip), vehicle: Klucel (hydroxypropylcellulose) (HPC) 93 % of control

CCCCS(=O)(=O)N1CCCCC1C (stereo unspecified)
inactive: dose: 25.0 mg/kg/injection, schedule: Q04DX002 (ip), vehicle: saline with Tween-80 96 % of control | dose: 50.0 mg/kg/injection, schedule: Q04DX002 (ip), vehicle: saline with Tween-80 96 % of control | [7] 86 % of control

CCCC[n+]1cccc(C(=O)c2ccccc2)c1
inactive: dose: 75.0 mg/kg/injection, schedule: Q01DX001 (ip), vehicle: saline 101 % of control
